For 80 compounds, RP-LC retention time results are on record in the METLIN SMRT retention time set (Domingo-Almenara et al. 2019).

The data set is described as follows: gradient 5% acetonitrile 3 min, to 50% in 2 min, to 85% in 15 min, held 3 min, 100 µL/min. The note with it: column: Zorbax Extend-C18 2.1 x 50 mm; eluents: water / acetonitrile, 0.1% formic acid. A digest of the protocol: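 Values are retention times taken from adduct peaks that software picked and an analyst inspected. The pure standards were run as mixtures of ~100 molecules on HPLC linked to a quadrupole time-of-flight mass spectrometer, in positive and negative ionization mode. A Zorbax Extend-C18 column (2.1 × 50 mm, 1.8 μm) was used at 100 μL/min with water and acetonitrile, each including 0.1% formic acid.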
As to `O=C(CN1C(=O)CCS(=O)(=O)c2ccccc21)Nc1ccc(Br)cc1`, the RP-LC retention time was 774 s.

`O=C1CCN(S(=O)(=O)c2ccccc2)CCCN(S(=O)(=O)c2cccc(F)c2)CCN1`: the RP-LC retention time came out at 795 s. `CC(C)N1C(=O)c2cccnc2Sc2cc(C(=O)N3CCCCC3)ccc21` registered an RP-LC retention time of 769 s.

As to `COc1ccc(OC)c(C(C)NC(=O)C2CCCN(c3nccnc3Sc3ccc(C)cc3)C2)c1` (stereo not given), the RP-LC retention time worked out at 1150 s.

In turn, `COc1ccc(Cn2nccc2NC(=O)c2cc(=O)c3ccc(Br)cc3o2)cc1` showed an RP-LC retention time of 870 s. Turning to `Cc1cc(C2CCCN2C(=O)Cc2ccc(F)cc2)no1` (stereo not given), the RP-LC retention time stood at 775 s. `CCCS(=O)(=O)Nc1cccc(-c2cn3ccccc3n2)c1` showed an RP-LC retention time of 608 s. For the compound `CCN(CC)c1nc2cc(C(=O)NCC3CC3)ccc2c(=O)n1Cc1ccccc1`, the RP-LC retention time is 1020 s. The result for `Cc1ccc(NC(=O)c2sc(-c3cn(C)c4ncccc34)nc2C)cc1F` reads 1000 s; that for `CC(C)CC(=O)N1CCC2(CC1)C(=O)N(C)c1ccccc12`, 766 s; that for `COc1ccc(Nc2nc(N3CCN(CCO)CC3)nc3c2C(=O)CCC3)cc1`, 637 s. The compound `COc1ccc(C(=O)Nc2nnc(SCc3nnc(-c4ccccc4)o3)s2)cc1` came in with an RP-LC retention time of 899 s. In the case of `Cc1ncc2n1CCN(S(=O)(=O)c1ccccc1)C2`, the RP-LC retention time amounted to 584 s.

Turning to `Cc1nc2nc(-c3ccccc3)nn2c(C)c1CC(=O)N1CCCCC1`, the RP-LC retention time was found to be 735 s.

Regarding `Cc1ccc(F)c(NC(=O)c2cnc3c(c2)c(=O)n(C)c(=O)n3-c2ccccc2)c1`, the RP-LC retention time stood at 904 s. In the case of `Cn1c(C2CCCN(S(C)(=O)=O)C2)nn(CC(=O)NC2CCCCC2)c1=O` (stereo not given), the RP-LC retention time is 606 s. The result for `CCS(=O)(=O)N1CCC2(CC1)CN(Cc1ccc(OC)cc1)C2=O` reads 745 s. In turn, `CC(=O)c1ccc(OC(=O)c2cc3c(C)nn(-c4cccc(F)c4)c3s2)cc1` returned an RP-LC retention time of 779 s. `Cc1ccc(C(=O)COC(=O)c2ccc3nc(C)c(C)nc3c2)cc1`: the RP-LC retention time amounted to 965 s. In the case of `C[C@@H]1CN(C(=O)c2ccoc2)C[C@H]1c1nc(-c2ccccc2)no1`, the RP-LC retention time turned out to be 879 s. Compound `COc1ccc(N2CCN(c3cc(SCC(=O)Nc4ccc(OC)c(OC)c4)ncn3)CC2)cc1` came in with an RP-LC retention time of 791 s. For `Cc1cc(C)cc(N2CCC(NC(=O)Cc3ccsc3)C2=O)c1` (stereo not given), the RP-LC retention time stood at 637 s. As to `CCn1ccc(C(=O)N2CCC(c3nc(-c4ccncc4)no3)C2)n1` (stereo not given), the RP-LC retention time came out at 640 s.

With `O=C(O)c1ccccc1Nc1cccc2c1C(=O)c1cccc(Nc3ccccc3C(=O)O)c1C2=O`, the RP-LC retention time was 1020 s. As to `O=C(N1CCOCC1)N1CCN(S(=O)(=O)c2cccc([N+](=O)[O-])c2)CC1`, the RP-LC retention time stood at 668 s. The value for `Cc1ccc(CNC(=O)N2CCCC(C)(C(=O)NCc3ccc(F)cc3)C2)cc1` (stereo not given) was 890 s; that for `O=C([C@@H]1C[C@H](F)CN1C(=O)c1ccc(Cl)cc1)N1CCCCC1` was 724 s. Turning to `COC(=O)c1[nH]c2c(c1C)C(=O)CC(c1cc(OC)c(OC)c(OC)c1)C2` (stereo not given), the RP-LC retention time stood at 781 s. For `COCCCNC(=O)Cn1ccc2c(SCc3ccc(C)cc3)nccc21`, the RP-LC retention time stood at 648 s. For `COc1ccc(-c2nnc(-c3ccc(OC)c(S(=O)(=O)N4CCC(C)CC4)c3)o2)cc1OC`, the RP-LC retention time was determined as 990 s.

On to `O=C(NCCc1ccccc1)NC1CCN(C(=O)N2C[C@H]3C[C@H](C2)[C@H]2CCCC(=O)N2C3)CC1`, for which the RP-LC retention time worked out at 658 s. The compound `CC1=C(c2ccc(C)cc2)S(=O)(=O)N=C1N1CCCN(C(=O)CC2CCCC2)CC1` displayed an RP-LC retention time of 910 s. The result for `O=C(NCc1ccc(Br)cc1)C(=O)c1c[nH]c2ccccc12` reads 995 s; that for `Cc1c(-c2ccccc2)n(O)[n+]([O-])c1-c1ccccc1`, 1020 s. With `COCc1nc(C2CCN(S(=O)(=O)c3ccc4c(c3)OCCO4)C2)no1` (stereo not given), the RP-LC retention time is 779 s. `COCCCNC(=O)C1CCC(=O)N(c2ccc3c(c2)OCO3)C1c1ccc(OC)cc1` (stereo not given) yielded an RP-LC retention time of 644 s. In turn, `CCn1ccc2sc(C)c(C(=O)NC3CCCCCC3)c2c1=O` had an RP-LC retention time of 894 s.

Regarding `Cc1nc(-c2ccc3c(c2)n(CC(=O)N2CCn4c2nc2ccccc24)c(=O)n3C(C)C)no1`, the RP-LC retention time worked out at 832 s. As for `COc1ccc(-c2noc(CN3C(=O)COc4ccc(C)cc43)n2)cc1OC`, the RP-LC retention time is 934 s. For `CC1(C(=O)NC2CCCCC2)Cn2c(ccc2-c2ccco2)C(=O)N1Cc1ccccn1` (stereo not given), the RP-LC retention time was 766 s. `Cc1cccc(-n2c(=O)c3c(cc(C)n3C)n(CC(=O)Nc3cccc(C(C)C)c3)c2=O)c1` returned an RP-LC retention time of 626 s. `CCOC(=O)CCNC(=O)NCc1nnnn1-c1ccc(C)c(C)c1` gave an RP-LC retention time of 663 s. Take `Cc1ccc(N2CCC(NC(=O)c3ccc(F)cc3)C2=O)cc1C` (stereo not given): the RP-LC retention time came to 828 s.

For `COc1ccccc1CNC(=O)c1ccc2c(c1)N(C)C(=O)c1ccccc1O2`, the RP-LC retention time was found to be 862 s. The value for `O=C(NCc1ccc(N2CCOCC2)cc1)c1csc(-c2ccc(N3CCCC3)nc2)n1` was 635 s. In turn, `COc1cccc(-n2c(=O)c3sccc3n(Cc3nc(-c4ccccc4)no3)c2=O)c1` came in with an RP-LC retention time of 956 s. Compound `O=S(=O)(c1ccc(Cl)cc1)N1CCC(c2nc(-c3ccccn3)no2)CC1` yielded an RP-LC retention time of 940 s. `Cc1ccc(Cl)cc1S(=O)(=O)NCC(O)Cc1ccccc1` (stereo not given): the RP-LC retention time amounted to 858 s. The compound `Cc1cc(C)n(-c2ccnc(NCc3cccnc3)n2)n1` came in with an RP-LC retention time of 588 s. As for `Cc1ccc(-c2noc(C3CCCN3C(=O)CNS(=O)(=O)c3ccc(Cl)cc3)n2)cc1` (stereo not given), the RP-LC retention time was 1030 s.

Regarding `COc1ccc(OC)c(NC(=O)C(C)C2CCN(C(=O)Nc3ccc(C)cc3)CC2)c1` (stereo not given), the RP-LC retention time stood at 908 s. For the compound `COc1ccc(NC(=O)C2CCCN(c3cnc4nccnc4c3)C2)cc1F` (stereo not given), the RP-LC retention time was 726 s. `CCN(CC)C(=O)c1ccc2c(c1)N(C(=O)NC)CC2`: the RP-LC retention time stood at 648 s. `CCCCNC(=O)Cc1nnc(-c2ccc(C)cc2)o1` registered an RP-LC retention time of 755 s. `O=C1NC(c2cccc3ccccc23)Nc2ccccc21` (stereo not given) displayed an RP-LC retention time of 776 s. For the compound `Cc1ccc(C2NC(=O)N(CC(=O)Nc3cc(C)on3)C3=C2C(=O)OC3)cc1` (stereo not given), the RP-LC retention time worked out at 722 s. Regarding `Cc1cc(Cl)ccc1NC(=O)N1C[C@@H](F)C[C@H]1C(=O)N1CCc2ccccc2C1`, the RP-LC retention time amounted to 908 s. In turn, `CCc1noc(-c2ccc(-n3cnc(C(=O)NC4CCCCC4)c3)nc2)n1` displayed an RP-LC retention time of 1110 s. `CS(=O)(=O)c1ccc(NCCCC(=O)O)c([N+](=O)[O-])c1`: the RP-LC retention time turned out to be 624 s.

`COc1cccc2sc(N(C)CC(=O)Nc3ccc(-n4cnnn4)cc3)nc12` had an RP-LC retention time of 729 s. On to `COc1ccccc1NC(=O)Cn1nc2c(Oc3ccccc3Cl)nccn2c1=O`, for which the RP-LC retention time turned out to be 908 s. The value for `COc1ccccc1CNc1ncnc(N)c1[N+](=O)[O-]` was 735 s; that for `O=C(O)c1cc(-c2ccc3c(c2)OCO3)nc2cc3c(cc12)OCCO3` was 690 s. Regarding `O=C(Nc1cccn2c(C3CCC3)nnc12)c1ccc(Cl)s1`, the RP-LC retention time came out at 871 s. The value for `Cc1cc(C(F)F)n2nc(C(=O)Nc3ccc(F)cc3C)nc2n1` was 811 s; that for `CCn1cc(-c2nc(C(=O)NCc3cc(F)cc(F)c3)cs2)c2cccnc21` was 1030 s.

`CC(C)Cn1cc(CCNC(=O)c2cccc(C(F)(F)F)c2)c2cccnc21` registered an RP-LC retention time of 940 s.

On to `COC(=O)c1c(C)[nH]c(C(=O)N2CCC(CC(=O)N3CCN(c4ccccc4)CC3)CC2)c1C`, for which the RP-LC retention time stood at 775 s. With `CNC(=O)N1CCC(C2CCN(C(=O)CCCC(=O)O)C2)CC1` (stereo not given), the RP-LC retention time came to 572 s. `CCc1cccc(NC(=O)c2c(C)oc3c2C2=NC(CC)CN2C=N3)c1` (stereo not given) registered an RP-LC retention time of 698 s.

Consider `O=C1NCCCc2c1oc1ccc(O)cc21`, for which the RP-LC retention time is 567 s. Compound `COc1ccccc1CC(=O)Nc1cccn2cnnc12` had an RP-LC retention time of 674 s. The result for `CC(C)CN1CCN(S(=O)(=O)c2ccc(-c3nnc(C4CCCC4)o3)o2)CC1` reads 692 s; that for `CN1CCC(NC(=O)C2CCN(C(=O)c3ncn4c3COC(c3ccc(F)cc3)C4)CC2)CC1` (stereo not given), 599 s; that for `O=C(COc1ccc(Cl)cc1Cl)Nc1nnc(-c2ccncc2)o1`, 669 s. In turn, `Cc1ccc(S(=O)(=O)[C@H]2CS(=O)(=O)C[C@@H]2N2CCN(c3ccccc3F)CC2)cc1` yielded an RP-LC retention time of 994 s. For the compound `Cc1ccc(Cn2c(C)c3cnn(CC(=O)NCC4CCCO4)c(=O)c3c2C)cc1` (stereo not given), the RP-LC retention time worked out at 780 s. In turn, `CCOC(=O)c1cccc(Nc2c(-c3cccc(O)c3)nc3cnccn23)c1` came in with an RP-LC retention time of 748 s. Compound `CCOC(=O)c1cnc2c(-c3cccc(Cl)c3)c(COC)nn2c1N` registered an RP-LC retention time of 1150 s.

The compound `O=C(NCCC1=CCCCC1)C1CCN(c2ccncc2)CC1` yielded an RP-LC retention time of 638 s.
